Laboratory results as given in patent US20230265116A1, “DEGRADATION OF (EGFR) BY CONJUGATION OF EGFR INHIBITORS WITH E3 LIGASE LIGAND AND METHODS OF USE” (BEIGENE, LTD., priority 2020, published 2023).

Columns and labels:
Assay type in all cases: cell-based
EGFR (HCC827 cells) = target: T1, EGFR (HCC827 cells) (Homo sapiens, UniProt P00533, DEL746-750); test: EGFR degradation HTRF assay, HCC827 cells; conditions: HCC827, 16h treatment; for Dmax: maximum percentage of degradation
T1 construct: endogenous in cells; host or cells: HCC827
T1 sequence (P00533 with tags, fused parts or gaps DEL746-750): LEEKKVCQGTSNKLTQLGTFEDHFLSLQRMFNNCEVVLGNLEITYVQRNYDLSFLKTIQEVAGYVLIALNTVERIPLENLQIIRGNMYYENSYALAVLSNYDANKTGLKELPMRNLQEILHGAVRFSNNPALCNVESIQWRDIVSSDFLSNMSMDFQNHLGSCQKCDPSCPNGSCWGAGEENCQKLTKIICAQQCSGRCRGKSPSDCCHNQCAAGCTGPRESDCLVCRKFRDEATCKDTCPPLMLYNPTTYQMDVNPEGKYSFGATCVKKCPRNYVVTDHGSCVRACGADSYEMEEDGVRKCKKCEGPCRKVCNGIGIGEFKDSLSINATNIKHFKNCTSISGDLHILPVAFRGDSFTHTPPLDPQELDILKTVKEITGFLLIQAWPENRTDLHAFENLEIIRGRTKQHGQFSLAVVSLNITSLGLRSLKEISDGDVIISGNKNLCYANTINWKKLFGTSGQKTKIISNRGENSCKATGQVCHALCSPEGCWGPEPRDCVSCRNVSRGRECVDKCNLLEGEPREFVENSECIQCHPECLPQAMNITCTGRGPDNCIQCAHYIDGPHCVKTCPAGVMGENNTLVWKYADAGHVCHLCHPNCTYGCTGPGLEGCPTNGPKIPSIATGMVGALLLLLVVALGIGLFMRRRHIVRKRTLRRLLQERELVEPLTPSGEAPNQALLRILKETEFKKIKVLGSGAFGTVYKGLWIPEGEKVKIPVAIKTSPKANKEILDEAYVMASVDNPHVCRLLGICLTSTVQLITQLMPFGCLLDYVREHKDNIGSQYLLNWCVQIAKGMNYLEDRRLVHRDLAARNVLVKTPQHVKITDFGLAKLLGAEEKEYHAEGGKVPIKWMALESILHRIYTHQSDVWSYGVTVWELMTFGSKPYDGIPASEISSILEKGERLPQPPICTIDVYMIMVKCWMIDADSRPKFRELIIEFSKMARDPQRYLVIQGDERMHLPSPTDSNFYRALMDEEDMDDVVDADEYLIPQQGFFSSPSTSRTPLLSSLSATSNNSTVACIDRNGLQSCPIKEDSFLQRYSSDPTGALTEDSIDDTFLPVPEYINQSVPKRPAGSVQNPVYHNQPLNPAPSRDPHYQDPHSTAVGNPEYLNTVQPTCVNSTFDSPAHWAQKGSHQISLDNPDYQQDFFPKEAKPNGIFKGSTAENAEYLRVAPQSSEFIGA
Experimental: BaF3 WT(wild type), BaF3-LTC(L858R/T790M/C797S) and BaF3-DTC(Del19/T790M/C797S) cells are treated with compounds diluted in 0.2% DMSO cell culture medium and incubate for 16h, 37° C., 5% CO2, H1975-#36, H1975-#28, H1975-#23 and HCC827 cells are treated with compounds diluted in 0.2% DMSO cell culture medium on day 2, incubate for 16h, 37° C., 5% CO2.the final concentriation of compounds in all assay is start with 10 uM, 5-fold dilution, total 8 doses were included.
After 16h treatment, add HTRF lysis buffer to each well; seal the plate and incubate 1 hour at room temperature on a plate shaker; Once the cells are lysed, 16 μL of cell lysate are transferred to a PE 384-well HTRF detection plate; 4 μL of pre-mixed HTRF antibodies are added to each well; Cover the plate with a plate sealer, spin 1000 rpm for 1 min, Incubate overnight at room temperature; Read on BMG PheraStar with HTRF protocol (337 nm-665 nm-620 nm).
The inhibition (degradation) percentage of the compound was calculated by the following equation: Inhibition percentage of Compound=100-100×(Signal-low control)/(High control-low control), wherein signal=each test compound group
High control=Cell group with added DMSO and without compound, indicating microplate readings without EGFR degradation;
Dmax is the maximum percentage of inhibition (degradation).
The IC50 (DC50) value of a compound can be obtained by fitting the following equation
Y=Bottom+(TOP−Bottom)/(1+((IC50/X)^hillslope))
Wherein, X and Y are known values, and IC50, Hillslope, Top and Bottom are the parameters obtained by fitting with software. Y is the inhibition percentage (calculated from the equation), X is the concentration of the compound; IC50 is the concentration of the compound when the 50% inhibition is reached. The smaller the IC50 value is, the stronger the inhibitory ability of the compound is. Vice versa, the higher the IC50 value is, the weaker the inhibitory ability of the compound is; Hillslope represents the slope of the fitted curve, generally around 1*; Bottom represents the minimum value of the curve obtained by data fitting, which is generally 0%±20%; Top represents the maximum value of the curve obtained by data fitting, which is generally 100%±20%. The experimental data were fitted by calculating and analyzing with Dotmatics data analysis software.

[1] = test system: EGFR Del19/T790M/C797S (BaF3-DTC cells); test: EGFR degradation HTRF assay, BaF3-DTC cells; conditions: 16h treatment
Procedure, shortened: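 Cells treated 16 h at 37 °C, 5% CO2 in medium with 0.2% DMSO; top final concentration 10 uM, 5-fold dilution, 8 doses. Lysates read by HTRF (665/620 nm); degradation % versus DMSO high control, DC50 from four-parameter fit, Dmax as maximal degradation.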

[2] = target: T2, EGFR L858R/T790M/C797S (BaF3-LTC cells) (Homo sapiens, UniProt P00533, C797S/L858R/T790M); test: EGFR degradation HTRF assay, BaF3-LTC cells; conditions: BaF3-LTC, 16h treatment
T2 construct: expressed in transfected cells; host or cells: BaF3
T2 sequence (P00533 25-1210 T790M/C797S/L858R): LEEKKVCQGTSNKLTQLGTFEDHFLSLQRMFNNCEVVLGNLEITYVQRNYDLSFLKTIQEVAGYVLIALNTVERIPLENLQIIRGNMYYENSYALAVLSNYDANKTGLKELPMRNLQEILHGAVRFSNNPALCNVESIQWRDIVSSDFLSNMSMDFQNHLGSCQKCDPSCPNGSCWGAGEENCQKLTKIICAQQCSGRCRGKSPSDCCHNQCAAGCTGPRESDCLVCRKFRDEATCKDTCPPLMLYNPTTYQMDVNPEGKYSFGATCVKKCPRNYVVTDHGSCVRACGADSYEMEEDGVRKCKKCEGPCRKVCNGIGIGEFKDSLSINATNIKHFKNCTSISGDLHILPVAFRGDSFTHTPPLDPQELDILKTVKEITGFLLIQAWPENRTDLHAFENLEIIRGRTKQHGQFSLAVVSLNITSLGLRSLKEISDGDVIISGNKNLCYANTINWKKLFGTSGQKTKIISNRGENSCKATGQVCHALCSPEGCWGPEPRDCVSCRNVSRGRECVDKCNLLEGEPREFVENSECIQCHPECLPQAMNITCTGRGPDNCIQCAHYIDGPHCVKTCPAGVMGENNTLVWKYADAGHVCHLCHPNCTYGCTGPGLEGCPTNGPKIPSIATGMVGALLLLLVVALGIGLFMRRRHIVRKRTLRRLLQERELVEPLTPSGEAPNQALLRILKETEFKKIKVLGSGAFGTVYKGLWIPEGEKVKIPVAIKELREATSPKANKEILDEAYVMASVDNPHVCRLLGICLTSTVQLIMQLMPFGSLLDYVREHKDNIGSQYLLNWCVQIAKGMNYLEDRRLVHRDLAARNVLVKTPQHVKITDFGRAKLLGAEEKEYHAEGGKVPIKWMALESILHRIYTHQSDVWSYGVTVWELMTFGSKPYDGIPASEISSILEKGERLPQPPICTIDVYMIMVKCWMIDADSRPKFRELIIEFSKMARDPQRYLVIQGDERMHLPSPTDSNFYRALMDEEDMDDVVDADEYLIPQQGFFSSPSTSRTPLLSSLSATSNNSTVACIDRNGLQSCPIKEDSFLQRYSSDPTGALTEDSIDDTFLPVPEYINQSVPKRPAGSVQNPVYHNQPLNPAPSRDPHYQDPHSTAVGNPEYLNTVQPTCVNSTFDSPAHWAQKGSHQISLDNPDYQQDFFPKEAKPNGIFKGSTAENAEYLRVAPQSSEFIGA
Procedure, shortened: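 EGFR remaining after a 16 h, 37 °C exposure (8 doses, 5-fold steps from 10 uM final, 0.2% DMSO) was quantified by HTRF antibodies in cell lysate. Percent inhibition relative to DMSO control was fitted by four-parameter logistic to give DC50; Dmax denotes maximal degradation.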

Row | Structure (SMILES) | DC50 (EGFR (HCC827 cells)) [nM] | Dmax (EGFR (HCC827 cells)) [%] | DTC Dmax (%) ([1]; maximum percentage of degradation) | DC50 ([1]; read-out: DTC DC50) [nM] | Dmax ([2]; maximum percentage of degradation, read-out: LTC Dmax (%)) [%] | DC50 ([2]; read-out: LTC DC50) [nM]
1 | CCc1cc(Nc2ncc(Br)c(Nc3ccc4nccnc4c3P(C)(C)=O)n2)c(OC)cc1N1CCC(N2CCN(CCCOc3ccc(C4CCC(=O)NC4=O)cc3)CC2)CC1 (centres unmarked) [Example 18, 3-(4-(3-(4-(1-(4-((5-bromo-4-((5-(dimethylphosphoryl)quinoxalin-6-yl)amino)pyrimidin-2-yl)amino)-2-ethyl-5-methoxyphenyl)piperidin-4-yl)piperazin-1-yl)propoxy)phenyl)piperidine-2,6-dione] | 15.4 | 77.5 |  |  |  | 
2 | CCc1cc(Nc2ncc(Br)c(Nc3ccc4nccnc4c3P(C)(C)=O)n2)c(OC)cc1N1CCC(N2CCN(C(=O)CCCCN3CCN(c4ccc5c(c4)C(=O)N(C4CCC(=O)NC4=O)C5=O)CC3)CC2)CC1 (centres unmarked) [Example 62, 5-(4-(5-(4-(1-(4-((5-bromo-4-((5-(dimethylphosphoryl)quinoxalin-6-yl)amino)pyrimidin-2-yl)amino)-2-ethyl-5-methoxyphenyl)piperidin-4-yl)piperazin-1-yl)-5-oxopentyl)piperazin-1-yl)-2-(2,6-dioxopiperidin-3-yl)isoindoline-1,3-dione] | 6.24 | 83.7 |  |  |  | 
3 | CCc1cc(Nc2ncc(Br)c(Nc3ccc4nccnc4c3P(C)(C)=O)n2)c(OC)cc1N1CCC(N2CCN(C(=O)CN3CCN(c4ccc5c(c4)C(=O)N(C4CCC(=O)NC4=O)C5)CC3)CC2)CC1 (centres unmarked) [Example 68, 3-(6-(4-(2-(4-(1-(4-((5-bromo-4-((5-(dimethylphosphoryl)quinoxalin-6-yl)amino)pyrimidin-2-yl)amino)-2-ethyl-5-methoxyphenyl)piperidin-4-yl)piperazin-1-yl)-2-oxoethyl)piperazin-1-yl)-1-oxoisoindolin-2-yl)piperidine-2,6-dione] | 13.1 | 64.3 |  |  |  | 
4 | COc1cc(N2CCC(N(C)CCc3ccc(C4CCC(=O)NC4=O)cn3)CC2)c(C)cc1Nc1ncc(Br)c(Nc2ccc3nccnc3c2P(C)(C)=O)n1 (centres unmarked) [Example 74, 3-(6-(2-((1-(4-((5-bromo-4-((5-(dimethylphosphoryl)quinoxalin-6-yl)amino)pyrimidin-2-yl)amino)-5-methoxy-2-methylphenyl)piperidin-4-yl)(methyl)amino)ethyl)pyridin-3-yl)piperidine-2,6-dione] | 57.2 | 85.2 |  |  |  | 
5 | COc1cc(N2CCC(N(C)CCc3ccc(C4CCC(=O)NC4=O)cc3)CC2)c(C)cc1Nc1ncc(Br)c(Nc2ccc3nccnc3c2P(C)(C)=O)n1 (centres unmarked) [Example 75, 3-(4-(2-((1-(4-((5-bromo-4-((5-(dimethylphosphoryl)quinoxalin-6-yl)amino)pyrimidin-2-yl)amino)-5-methoxy-2-methylphenyl)piperidin-4-yl)(methyl)amino)ethyl)phenyl)piperidine-2,6-dione] | 50.6 | 72.1 |  |  |  | 
6 | COc1cc(N2CCC(N(C)CCOc3ccc(C4CCC(=O)NC4=O)cc3)CC2)c(C)cc1Nc1ncc(Br)c(Nc2ccc3nccnc3c2P(C)(C)=O)n1 (centres unmarked) [Example 76, 3-(4-(2-((1-(4-((5-bromo-4-((5-(dimethylphosphoryl)quinoxalin-6-yl)amino)pyrimidin-2-yl)amino)-5-methoxy-2-methylphenyl)piperidin-4-yl)(methyl)amino)ethoxy)phenyl)piperidine-2,6-dione] | 30.5 | 77.1 |  |  |  | 
7 | COc1cc(N2CCC(N(C)CCC3CCN(c4ccc(C5CCC(=O)NC5=O)cc4)CC3)CC2)c(C)cc1Nc1ncc(Br)c(Nc2ccc3nccnc3c2P(C)(C)=O)n1 (centres unmarked) [Example 78, 3-(4-(4-(2-((1-(4-((5-bromo-4-((5-(dimethylphosphoryl)quinoxalin-6-yl)amino)pyrimidin-2-yl)amino)-5-methoxy-2-methylphenyl)piperidin-4-yl)(methyl)amino)ethyl)piperidin-1-yl)phenyl)piperidine-2,6-dione] | 15.2 | 70.1 |  |  |  | 
8 | COc1cc(N2CCC(N(C)CCC3CCN(c4ccc(N5CCC(=O)NC5=O)cc4)CC3)CC2)c(C)cc1Nc1ncc(Br)c(Nc2ccc3nccnc3c2P(C)(C)=O)n1 [Example 80, 1-(4-(4-(2-((1-(4-((5-bromo-4-((5-(dimethylphosphoryl)quinoxalin-6-yl)amino)pyrimidin-2-yl)amino)-5-methoxy-2-methylphenyl)piperidin-4-yl)(methyl)amino)ethyl)piperidin-1-yl)phenyl)dihydropyrimidine-2,4(1H,3H)-dione] | 35.9 | 74.4 |  |  |  | 
9 | COc1cc(N2CCN(CCc3ccc(C4CCC(=O)NC4=O)cc3)CC2)c(C)cc1Nc1ncc(Br)c(Nc2ccc3nccnc3c2P(C)(C)=O)n1 (centres unmarked) [Example 86, 3-(4-(2-(4-(4-((5-bromo-4-((5-(dimethylphosphoryl)quinoxalin-6-yl)amino)pyrimidin-2-yl)amino)-5-methoxy-2-methylphenyl)piperazin-1-yl)ethyl)phenyl)piperidine-2,6-dione] | 66.7 | 81 |  |  |  | 
10 | COc1cc(N2CCN(CCc3ccc(C4CCC(=O)NC4=O)cn3)CC2)c(C)cc1Nc1ncc(Br)c(Nc2ccc3nccnc3c2P(C)(C)=O)n1 (centres unmarked) [Example 87, 3-(6-(2-(4-(4-((5-bromo-4-((5-(dimethylphosphoryl)quinoxalin-6-yl)amino)pyrimidin-2-yl)amino)-5-methoxy-2-methylphenyl)piperazin-1-yl)ethyl)pyridin-3-yl)piperidine-2,6-dione] | 57.5 | 86.2 |  |  |  | 
11 | COc1cc(N2CCN(CCOc3ccc(C4CCC(=O)NC4=O)cc3)CC2)c(C)cc1Nc1ncc(Br)c(Nc2ccc3nccnc3c2P(C)(C)=O)n1 (centres unmarked) [Example 91, 3-(4-(2-(4-(4-((5-bromo-4-((5-(dimethylphosphoryl)quinoxalin-6-yl)amino)pyrimidin-2-yl)amino)-5-methoxy-2-methylphenyl)piperazin-1-yl)ethoxy)phenyl)piperidine-2,6-dione] | 90.4 | 73.5 |  |  |  | 
12 | COc1cc(N2CCN(CCCOc3ccc(OC4CCC(=O)NC4=O)cc3)CC2)c(C)cc1Nc1ncc(Br)c(Nc2ccc3nccnc3c2P(C)(C)=O)n1 (centres unmarked) [Example 92, 3-(4-(3-(4-(4-((5-bromo-4-((5-(dimethylphosphoryl)quinoxalin-6-yl)amino)pyrimidin-2-yl)amino)-5-methoxy-2-methylphenyl)piperazin-1-yl)propoxy)phenoxy)piperidine-2,6-dione] | 306 | 76.8 |  |  |  | 
13 | COc1cc(N2CCN(CCc3ccc(OC4CCC(=O)NC4=O)cc3)CC2)c(C)cc1Nc1ncc(Br)c(Nc2ccc3nccnc3c2P(C)(C)=O)n1 (centres unmarked) [Example 93, 3-(4-(2-(4-(4-((5-bromo-4-((5-(dimethylphosphoryl)quinoxalin-6-yl)amino)pyrimidin-2-yl)amino)-5-methoxy-2-methylphenyl)piperazin-1-yl)ethyl)phenoxy)piperidine-2,6-dione] | 130 | 72.4 |  |  |  | 
14 | COc1cc(N2CCN(CCC3CCN(c4ccc(N5CCC(=O)NC5=O)cc4)CC3)CC2)c(C)cc1Nc1ncc(Br)c(Nc2ccc3nccnc3c2P(C)(C)=O)n1 [Example 94, 1-(4-(4-(2-(4-(4-((5-bromo-4-((5-(dimethylphosphoryl)quinoxalin-6-yl)amino)pyrimidin-2-yl)amino)-5-methoxy-2-methylphenyl)piperazin-1-yl)ethyl)piperidin-1-yl)phenyl)dihydropyrimidine-2,4(1H,3H)-dione] | 32.2 | 58.5 |  |  |  | 
15 | COc1cc(N2CCN(C3CN(C(=O)c4cnc(C(=O)Nc5ccc(C6CCC(=O)NC6=O)cc5)cn4)C3)CC2)c(C)cc1Nc1ncc(Br)c(Nc2ccc3nccnc3c2P(C)(C)=O)n1 (centres unmarked) [Example 723, 5-(3-(4-(4-((5-bromo-4-((5-(dimethylphosphoryl)quinoxalin-6-yl)amino)pyrimidin-2-yl)amino)-5-methoxy-2-methylphenyl)piperazin-1-yl)azetidine-1-carbonyl)-N-(4-(2,6-dioxopiperidin-3-yl)phenyl)pyrazine-2-carboxamide] |  |  | 76.49 | 5.67 | 81.7 | 12.1
